The values that follow come from paper PMC6384901 (Molecules, 2019).

Series [1] addresses T1, human recombinant His6-SIRT1 or GST-SIRT1 (Homo sapiens, UniProt Q96EB6).
T1 construct: His6 or GST (two alternative purchased preparations, not both on one protein); purchased Sigma-Aldrich China (His6-SIRT1); Cayman Chemical (GST-SIRT1)
T1 sequence (Q96EB6 1-747): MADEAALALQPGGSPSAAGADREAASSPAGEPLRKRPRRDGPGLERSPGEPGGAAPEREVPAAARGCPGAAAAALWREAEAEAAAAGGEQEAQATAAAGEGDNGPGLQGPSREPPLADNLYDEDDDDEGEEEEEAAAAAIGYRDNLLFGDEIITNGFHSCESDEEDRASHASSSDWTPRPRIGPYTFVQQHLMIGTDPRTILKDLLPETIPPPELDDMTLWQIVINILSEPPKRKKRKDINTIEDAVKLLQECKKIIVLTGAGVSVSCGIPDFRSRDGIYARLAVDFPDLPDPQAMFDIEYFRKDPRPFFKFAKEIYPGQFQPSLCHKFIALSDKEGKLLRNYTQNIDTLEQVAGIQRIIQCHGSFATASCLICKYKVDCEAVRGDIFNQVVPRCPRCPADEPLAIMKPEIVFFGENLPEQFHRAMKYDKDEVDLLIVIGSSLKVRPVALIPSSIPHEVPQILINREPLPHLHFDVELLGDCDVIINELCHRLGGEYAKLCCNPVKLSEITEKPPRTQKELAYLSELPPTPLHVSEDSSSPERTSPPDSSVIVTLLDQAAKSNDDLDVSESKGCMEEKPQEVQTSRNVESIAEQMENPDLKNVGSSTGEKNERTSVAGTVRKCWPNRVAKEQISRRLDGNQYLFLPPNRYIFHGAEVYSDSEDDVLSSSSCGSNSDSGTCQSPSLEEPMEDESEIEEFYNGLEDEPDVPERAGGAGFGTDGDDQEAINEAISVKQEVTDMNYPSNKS
The series can be described thus: HPLC-based sirtuin deacylation activity assay, SIRT1. Type of series: biochemical. Conditions: substrate activity with SIRT1; 50 mM Hepes pH 8.0, 0.5 mM β-NAD+, SIRT1 243 nM, 37 °C, 5 min, HPLC 214 nm, Michaelis-Menten fit. On the procedure: The steady-state kinetic parameters (kcat and KM) for the SIRT1/2/3 substrate activities of the purified 5–8 were determined with a HPLC-based sirtuin deacylation activity assay and are recorded in Table 2 and Table 3. As judged by kcat/KM ratios, cyclic peptides 5–8 were all found to be excellent SIRT1 substrates, actually 5, 7, and 8 are all better SIRT1 substrates than the linear hexapeptide-based SIRT1 substrate 3 (depicted in Figure 2) reported in the current literature (kcat/KM = 800 M^−1 s^−1). Cyclic peptides 5–8 were also all found to be better SIRT3 substrates than the linear hexapeptide-based SIRT3 substrate 3 reported in the current literature (kcat/KM = 990 M^−1·s^−1).
The following materials were obtained from commercial sources for the in vitro sirtuin deacylation activity assay and the pronase digestion assay, and were used as received. Sigma-Aldrich China: the active human recombinant His6-SIRT1, Trizma, Hepes, β-NAD^+, a 1.0 M solution of MgCl2 (molecular-biology grade), the pronase from Streptomyces griseus; Cayman Chemical (Ann Arbor, MI, USA): the active human recombinant GST-SIRT1, the active human recombinant His6-SIRT2, the active human recombinant His6-SIRT3; TCI Shanghai: DL-dithiothreitol (DTT); Alfa Aesar China: NaCl, KCl.
A sirtuin deacylation assay solution contained the following: 50 mM Hepes (pH 8.0), 137 mM NaCl, 2.7 mM KCl, 1 mM MgCl2, 1 mM DTT, β-NAD^+ (~5.6 × KM: 0.5 mM for the SIRT1 and SIRT2 assays, 3.5 mM for the SIRT3 assay), one test compound (5, 6, 7, or 8) with varied concentrations including 0, and a sirtuin (His6-SIRT1 or GST-SIRT1, 243 nM; His6-SIRT2, 297 nM; or His6-SIRT3, 739 nM). An enzymatic reaction was initiated by the addition of a sirtuin at 37 °C and was incubated at 37 °C for 5 min (for the SIRT1 assay) or 2 min (for the SIRT2 and SIRT3 assays) until quenched with the following stop solution: 100 mM HCl and 0.16 M acetic acid. The quenched assay solutions were directly injected into a C18 column (0.46 × 25 cm, 5 μm), and the column was eluted with a gradient of ddH2O containing 0.05% (v/v) TFA and acetonitrile containing 0.05% (v/v) TFA at 1 mL/min and was monitored at 214 nm. Turnover of the limiting substrate was kept at <10%. Stock solutions of the test compounds were all prepared in ddH2O. The integrated product and substrate HPLC peak areas were then used to determine the initial velocities for the sirtuin-catalyzed deacylation reaction at different concentrations of a test compound (5, 6, 7, or 8). The initial velocity-concentration data were analyzed with KaleidaGraph® (Synergy Software, Reading, PA, USA) and the data were fitted to the Michaelis-Menten equation to obtain the kinetic parameters kcat and KM, as recorded in Table 2 and Table 3.

Series [2] concerns His6-SIRT1 or GST-SIRT1, 243 nM. The series is described as follows: 50 mM Hepes (pH 8.0), 137 mM NaCl, 2.7 mM KCl, 1 mM MgCl2, 1 mM DTT, β-NAD^+ 0.5 mM. The settings on record: human, 37 °C, up to 5 min.
The next series relates to His6-SIRT2, 297 nM. The description is as above. The settings on record: human, 37 °C, up to 2 min.
For another series, the system named is His6-SIRT3, 739 nM. The series can be described thus: 50 mM Hepes (pH 8.0), 137 mM NaCl, 2.7 mM KCl, 1 mM MgCl2, 1 mM DTT, β-NAD^+ 3.5 mM. Conditions: human, 37 °C, up to 2 min.
The test system of a further series is pronase. The series is described as follows: pronase solution in 100 mM Tris HCl (pH 7.3) (8 ng/µL). The settings on record: Streptomyces griseus, 37 °C, up to 60 min.

A word on the KM: it is the substrate concentration at which the rate is half of its maximum.

Numbered stars: 1 amine (or outer) side, 2 acyl side, 3 side chain; on linkers, the order of the positions; unused ones are H or OH. Bridge positions count the residues as written; N and C are the ends. Peptide text beside a SMILES is read from it. * marks the point of attachment. Suberoyl(Gly)2 = O=C(CCCCCCC(=O)NCC(=O)[*:2])NCC(=O)[*:1]; Suberoyl = O=C(CCCCCCC(=O)[*:2])[*:1]; Myristoyl = CCCCCCCCCCCCCC(=O)*; Suc = O=C(CCC(=O)[*:2])[*:1]

As for `CSCC[C@H](NC(=O)[C@@H]1CCCCNC(=O)CNC(=O)CCCCCCC(=O)NCC(=O)NCCCC[C@H](NC(C)=O)C(=O)N[C@@H](CCCCN)C(=O)N[C@@H](CCCCNC(C)=O)C(=O)N1)C(N)=O` [Compound 5] (Ac-KKK(Ac)KM-NH2; linker 1-4 via Suberoyl(Gly)2), in series [1], the KM was determined as 22.2 ± 1.8 µM and the kcat is listed as 35.6 ± 5.1 10^−3, s^−1.

In the case of `CSCC[C@H](NC(=O)[C@@H]1CCCCNC(=O)CCC(=O)NCCCC[C@H](NC(C)=O)C(=O)N[C@@H](CCCCN)C(=O)N[C@@H](CCCCNC(C)=O)C(=O)N1)C(N)=O` [Compound 6] (Ac-KKK(Ac)KM-NH2; linker 1-4 via Suc), in series [1], the KM was determined as 41.3 ± 1.83 µM and the kcat is reported as 25.9 ± 2.3 10^−3, s^−1.

On to `CCCCCCCCCCCCCC(=O)NCCCC[C@@H]1NC(=O)[C@H](CCCNC(=N)N)NC(=O)[C@@H](NC(C)=O)CCCCNC(=O)CCCCCCC(=O)NCCCC[C@@H](C(=O)N[C@H](C(N)=O)[C@@H](C)O)NC1=O` [Compound 7] (Ac-KRK(Myristoyl)KT-NH2; linker 1-4 via Suberoyl), for which, in series [1], the KM was 2.85 ± 0.13 µM and the kcat is on record as 5.8 ± 0.1 10^−3, s^−1.

For `CC(=O)NCCCC[C@@H]1NC(=O)[C@H](CCCCN)NC(=O)[C@@H](NC(C)=O)CCCCNC(=O)CNC(=O)CCCCCCC(=O)NCC(=O)NCCCC[C@@H](C(N)=O)NC1=O` [Compound 8] (Ac-KKK(Ac)K-NH2; linker 1-4 via Suberoyl(Gly)2), the KM in series [1] was 42.2 ± 17.5 µM.

Consider “CH3CONH-Lys-Arg-(N^ε-myristoyl-Lysine)-Lys-Thr-NH2, side chains of Lys1 and Lys4 bridged by suberoyl (read from the drawn structure)”, for which the cleaved bond result in series [2] was “SIRT1-catalyzed deacylation of N^ε-myristoyl-lysine”; in the series with His6-SIRT2, 297 nM, “SIRT2-catalyzed deacylation of N^ε-myristoyl-lysine”; with His6-SIRT3, 739 nM, “SIRT3-catalyzed deacylation of N^ε-myristoyl-lysine”.

Consider “CH3CONH-Lys-Lys-(N^ε-acetyl-Lysine)-Lys-Met-NH2, side chains of Lys1 and Lys4 bridged by Gly-suberoyl-Gly (read from the drawn structure)”, for which the cleaved bond entry in series [2] was “SIRT1-catalyzed deacylation of N^ε-acetyl-lysine”; in the series on His6-SIRT2, 297 nM, “SIRT2-catalyzed deacylation of N^ε-acetyl-lysine”; in the series on His6-SIRT3, 739 nM, “SIRT3-catalyzed deacylation of N^ε-acetyl-lysine”. The compound further gave a fragment found in the series with pronase of 5a.

Take “CH3CONH-Lys-Lys-(N^ε-acetyl-Lysine)-Lys-Met-NH2, side chains of Lys1 and Lys4 bridged by succinyl (read from the drawn structure)”: the cleaved bond entry is “SIRT1-catalyzed deacylation of N^ε-acetyl-lysine” in series [2]; “SIRT2-catalyzed deacylation of N^ε-acetyl-lysine” in the series on His6-SIRT2, 297 nM; “SIRT3-catalyzed deacylation of N^ε-acetyl-lysine” in the series on His6-SIRT3, 739 nM.

For “CH3CONH-Lys-Lys-(N^ε-acetyl-Lysine)-Lys-NH2, side chains of Lys1 and Lys4 bridged by Gly-suberoyl-Gly (read from the drawn structure)”, the cleaved bond result in series [2] is “SIRT1-catalyzed deacylation of N^ε-acetyl-lysine”; with His6-SIRT2, 297 nM it was “SIRT2-catalyzed deacylation of N^ε-acetyl-lysine”; with His6-SIRT3, 739 nM, “SIRT3-catalyzed deacylation of N^ε-acetyl-lysine”.
